The test system of the experiment is L1210 leukemia ip in BDF1 mice, survival T/C. Briefly: NCI In Vivo Anticancer Drug Screen. Data for tumor model L1210 Leukemia (intraperitoneal) in B6D2F1 (BDF1) mice. Conditions: endpoint: mean survival time, higher = longer survival. An outline of the steps:
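Survival endpoint. Drug-treated group vs vehicle group, expressed as T divided by C. Tumor passaged by transplantation.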

Where “and” joins values, the source holds several entries; their conditions need not be identical. Equal entries are not always repeated. Toxic doses and inconclusive results are not listed.

In the case of `CCOC(=O)NP(=O)(N1CC1)N1CC1`, the T/C runs as follows: (dose: 0.16 mg/kg/injection, schedule: Q#A X Z (ip), vehicle: saline) 100 % of control; (dose: 0.31 mg/kg/injection, schedule: Q#A X Z (ip), vehicle: saline) 100 % of control; (dose: 0.32 mg/kg/injection, schedule: Q01DX Z (im), vehicle: saline) 105 % of control; (dose: 0.32 mg/kg/injection, schedule: Q01DX Z (ip), vehicle: saline) 102 % of control; (dose: 0.62 mg/kg/injection, schedule: Q#A X Z (ip), vehicle: saline) 102 % of control; (dose: 0.63 mg/kg/injection, schedule: Q01DX Z (im), vehicle: saline) 105 % of control. Also, the T/C by setting is: (dose: 0.63 mg/kg/injection, schedule: Q01DX Z (ip), vehicle: saline) 98 % of control; (dose: 0.7 mg/kg/injection, schedule: Q01DX Z (ip), vehicle: carboxymethylcellulose (CMC)) 101 % of control; (dose: 0.9 mg/kg/injection, schedule: Q03DX006 (ip), vehicle: saline) 104 % of control; (dose: 1.25 mg/kg/injection, schedule: Q01DX Z (im), vehicle: saline) 104 % of control; (dose: 1.25 mg/kg/injection, schedule: Q01DX Z (ip), vehicle: saline) 105 % of control; (dose: 1.25 mg/kg/injection, schedule: Q01DX Z (oral), vehicle: saline) 100 % of control. Moreover, the T/C (dose: 1.25 mg/kg/injection, schedule: Q#A X Z (ip), vehicle: saline) was 121 % of control; the T/C (dose: 1.5 mg/kg/injection, schedule: Q01DX Z (ip), vehicle: carboxymethylcellulose (CMC)) was 104 % of control; the T/C (dose: 1.9 mg/kg/injection, schedule: Q03DX006 (ip), vehicle: saline) is 104 % of control; the T/C (dose: 2.2 mg/kg/injection, schedule: Q01DX001 (ip), vehicle: saline) is 101 % of control and 107 % of control; the T/C (dose: 2.2 mg/kg/injection, schedule: Q07DX003 (ip), vehicle: saline) is 105 % of control; the T/C (dose: 2.37 mg/kg/injection, schedule: Q01DX Z (ip), vehicle: carboxymethylcellulose (CMC)) is 114 % of control. Besides, the T/C was 107 % of control (dose: 2.5 mg/kg/injection, schedule: Q01DX Z (im), vehicle: saline); 107 % of control (dose: 2.5 mg/kg/injection, schedule: Q01DX Z (ip), vehicle: saline); 107 % of control (dose: 2.5 mg/kg/injection, schedule: Q01DX Z (oral), vehicle: saline); 113 % of control (dose: 3.0 mg/kg/injection, schedule: Q01DX Z (ip), vehicle: carboxymethylcellulose (CMC)); 105 % of control (dose: 3.8 mg/kg/injection, schedule: Q03DX006 (ip), vehicle: saline); 102 % of control (dose: 4.4 mg/kg/injection, schedule: Q01DX001 (ip), vehicle: saline). Further, the T/C runs as follows: (dose: 4.4 mg/kg/injection, schedule: Q07DX003 (ip), vehicle: saline) 105 % of control; (dose: 5.0 mg/kg/injection, schedule: Q01DX006 (iv), vehicle: saline) 100 % of control; (dose: 5.0 mg/kg/injection, schedule: Q01DX Z (oral), vehicle: saline) 100 % of control; (dose: 5.0 mg/kg/injection, schedule: Q01DX Z (sc), vehicle: saline) 120 % of control; (dose: 5.06 mg/kg/injection, schedule: Q01DX Z (ip), vehicle: carboxymethylcellulose (CMC)) 117 % of control; (dose: 6.0 mg/kg/injection, schedule: Q01DX Z (ip), vehicle: carboxymethylcellulose (CMC)) 158 % of control. In addition, the T/C is, setting by setting: (dose: 6.33 mg/kg/injection, schedule: Q01DX Z (ip), vehicle: carboxymethylcellulose (CMC)) 124 % of control; (dose: 7.5 mg/kg/injection, schedule: Q03DX006 (ip), vehicle: saline) 119 % of control; (dose: 8.7 mg/kg/injection, schedule: Q01DX001 (ip), vehicle: saline) 108 % of control; (dose: 8.7 mg/kg/injection, schedule: Q07DX003 (ip), vehicle: saline) 105 % of control; (dose: 8.75 mg/kg/injection, schedule: Q01DX001 (ip), vehicle: saline) 113 % of control and 123 % of control; (dose: 9.5 mg/kg/injection, schedule: Q01DX Z (ip), vehicle: carboxymethylcellulose (CMC)) 157 % of control. In addition, the T/C is, setting by setting: (dose: 10.0 mg/kg/injection, schedule: Q01DX006 (iv), vehicle: saline) 105 % of control; (dose: 10.0 mg/kg/injection, schedule: Q01DX Z (im), vehicle: saline) 160 % of control; (dose: 10.0 mg/kg/injection, schedule: Q01DX Z (ip), vehicle: saline) 195 % of control; (dose: 10.0 mg/kg/injection, schedule: Q01DX Z (oral), vehicle: saline) 115 % of control; (dose: 10.0 mg/kg/injection, schedule: Q#A X Z (ip), vehicle: saline) 110 % of control; (dose: 12.0 mg/kg/injection, schedule: Q01DX Z (ip), vehicle: carboxymethylcellulose (CMC)) 115 % of control. The T/C is 152 % of control (dose: 12.66 mg/kg/injection, schedule: Q01DX Z (ip), vehicle: carboxymethylcellulose (CMC)); 182 % of control (dose: 15.0 mg/kg/injection, schedule: Q03DX007 (ip), vehicle: saline); 117 % of control (dose: 20.0 mg/kg/injection, schedule: Q01DX006 (iv), vehicle: saline); 152 % of control (dose: 20.0 mg/kg/injection, schedule: Q01DX Z (im), vehicle: saline); 175 % of control (dose: 20.0 mg/kg/injection, schedule: Q01DX Z (sc), vehicle: saline); 94 % of control and 102 % of control (dose: 24.0 mg/kg/injection, schedule: Q01DX Z (ip), vehicle: carboxymethylcellulose (CMC)). Also, the T/C reads like this: (dose: 30.0 mg/kg/injection, schedule: Q03DX007 (ip), vehicle: saline) 165 % of control; (dose: 38.0 mg/kg/injection, schedule: Q01DX Z (ip), vehicle: carboxymethylcellulose (CMC)) 94 % of control; (dose: 40.0 mg/kg/injection, schedule: Q01DX Z (im), vehicle: saline) 94 % of control; (dose: 40.0 mg/kg/injection, schedule: Q01DX Z (ip), vehicle: saline) 103 % of control; (dose: 40.0 mg/kg/injection, schedule: Q01DX Z (oral), vehicle: saline) 155 % of control; (dose: 70.0 mg/kg/injection, schedule: Q07DX001 (ip), vehicle: saline) 115 % of control. For the same compound, the T/C is 111 % of control (dose: 80.0 mg/kg/injection, schedule: Q01DX Z (sc), vehicle: saline) and 105 % of control (dose: 280.0 mg/kg/injection, schedule: Q01DX001 (ip), vehicle: saline).
On to `CC(=O)OC1C=CCC2C(=O)c3cc4ccccc4cc3C(=O)C12` (stereo not drawn), for which the T/C was 100 % of control (dose: 100.0 mg/kg/injection, schedule: Q01DX001 (ip), vehicle: other) and 104 % of control (dose: 200.0 mg/kg/injection, schedule: Q01DX001 (ip), vehicle: other).
In the case of `CC(=O)c1ccc(P(=O)(O)O)cc1`, the T/C (dose: 75.0 mg/kg/injection, schedule: Q01DX001 (ip), vehicle: saline) was 96 % of control; the T/C (dose: 150.0 mg/kg/injection, schedule: Q01DX001 (ip), vehicle: saline) is 102 % of control; the T/C (dose: 300.0 mg/kg/injection, schedule: Q01DX001 (ip), vehicle: saline) is 98 % of control.
As to `C=C(Br)S(=O)(=O)CC`, the T/C (dose: 6.25 mg/kg/injection, schedule: Q04DX002 (ip), vehicle: saline) is 101 % of control; the T/C (dose: 12.5 mg/kg/injection, schedule: Q04DX002 (ip), vehicle: saline) was 90 % of control; the T/C (dose: 25.0 mg/kg/injection, schedule: Q04DX002 (ip), vehicle: Klucel (hydroxypropylcellulose) (HPC)) is 101 % of control; the T/C (dose: 25.0 mg/kg/injection, schedule: Q04DX002 (ip), vehicle: saline) was 111 % of control.
As for `COc1cc(OC)c(OC)cc1/C=C/c1ccc2ccccc2n1`, the T/C is 91 % of control (dose: 100.0 mg/kg/injection, schedule: Q01DX009 (ip), vehicle: saline with Tween-80); 100 % of control (dose: 200.0 mg/kg/injection, schedule: Q01DX009 (ip), vehicle: saline with Tween-80); 98 % of control (dose: 400.0 mg/kg/injection, schedule: Q01DX009 (ip), vehicle: saline with Tween-80).

For the origin of these results see PubChem BioAssay AID248 (DTP/NCI, 2004).
